Experimental data as given in US20250295790A1, “LECTIN-TARGETING CONJUGATES” (Helmholtz-Zentrum für Infektionsforschung GmbH, priority 2021, published 2025).
“And” between values parts separate entries of the source, which are not always exact repeats. Identical values can stand only once. “Also recorded” adds a separate entry of the source.

Assays:
[1] = Prodrug activation assay in human blood plasma spiked with P. aeruginosa PA14 culture supernatant; format: in vitro ADME, Pseudomonas aeruginosa PA14; conditions: 50% human blood plasma spiked with 10% P. aeruginosa culture supernatant, within 3 h
Method: In the prodrug activation assay, the bacterial strain Pseudomonas aeruginosa PA14 wt (DSM 19882) was used. The strain was obtained from the German Collection of Microorganisms and Cell Cultures (DSMZ).
P. aeruginosa PA14 was streaked on LB-agar plates (1% agar) from glycerol stocks and incubated at 37° C. overnight. 2-5 colonies were picked and dispersed in 10 mL LB (10 g/L trypton, 10 g/L NaCl, 5 g/L yeast extracts). This dispersion was incubated overnight at 37° C., 180 rpm under high humidity. The culture was centrifuged (4000 ref, room temperature, 10 min) and the supernatant was filtered (0.22 m pore size). […]
(§1) A 1 mM solution of the studied compound was prepared in PBS (150 mM NaCl, 2.6 mM KCl, 1.4 mM KH2PO4, 10 mM Na2HPO4, pH 7.4) with 20% DMSO. 50 μL of this solution was diluted in 950 μL matrix or human plasma (spiked with 10% LB) on ice. After brief vortex, 100 μL were immediately treated with 100 μL ice-cold MeCN (spiked with […] diphenhydramine as internal standard). The rest of the solution was incubated at 37° C. and 500 rpm in an eppendorf thermomixer. At various time points (30, 60, 120, 180 min), 100 L sample were taken and treated as described above. […] The AUC of the parent drug and its cleavage products and the internal standard was quantified using Compass QuantAnalysis quantification software. The relative AUC was calculated by AUC (compound)/AUC(ISTD). Procaine was used as a positive control as it readily degrades in human plasma.

[2] = Plasma protein binding assay (RED), murine plasma; format: in vitro ADME; conditions: mouse blood plasma
Method: Plasma protein binding was assessed using the rapid equilibrium device (RED) system from ThermoFisher. […] Dialysis buffer and plasma samples were added to the respective chambers according the manufacturer's protocol. The RED plate was sealed with a tape and incubated at 37° C. for 2 hours at 800 rpm on an Eppendorf MixMate® vortex-mixer. Then samples were withdrawn from the respective chambers. To 25 μl of each dialysis sample, 25 μl of plasma and to 25 μl of plasma sample, 25 l of dialysis buffer was added. […] Samples were incubated for 30 min on ice. Then samples were centrifuged at 4° C. at 2270 ref for 10 min. Supernatants were transferred to Greiner V-bottom 96-well plates and sealed with a tape. Then samples were subjected to HPLC-MS/MS analysis as described in the section ‘HPLC-MS/MS analysis’. The percentage of bound compound was calculated as follows: […]
Cell samples as well as plasma stability, plasma protein binding and metabolic stability samples were analysed using an Agilent 1290 Infinity II coupled to an AB Sciex 6500plus mass spec-trometer. LC conditions were as follows: column: Agilent Zorbax Eclipse Plus C18, 50×2.1 mm, 1.8 m; temperature: 30° C.; injection volume: 5 l per sample; flow rate: 700 l/min. Solvents: A: water+0.1% formic acid; solvent B: 95% acetonitrile/5% H2O+0.1% formic acid. […]

[3] = Stability of conjugates in human blood plasma spiked with LB; format: in vitro ADME; conditions: 50% human blood plasma spiked with 10% LB, within three hours
Method: as §1

A549 cells = experiment: Cell accumulation assay; format: cell-based, human; conditions: for intracellular drug levels: 15 min after incubation
Method: A549 cells were seed into 96-well-plates as described for the cytotoxicity assay. Cells were cultivated at 37° C. and 5% CO2 until they reached 95% confluency. Cells were treated with 2, 36 or 37 at a final concentration of 10 µg/ml or left untreated. Each condition was assayed in technical dupli-cates with two biological replicates. Cells were treated for 15 min, 30 min and 60 min. After incubation for the respective time point, cells were washed twice with pre-warmed PBS and were then lysed in MeOH and scratched from the surface. Supernatants from medium, wash fluids as well as the cell extracts were subjected to mass spectrometric analysis. For wash fluid and medium samples, calibration and QC samples were prepared using PBS as matrix and spiking the respective compounds into the matrix. For cell extract samples, calibration and QC samples were prepared using MeOH as matrix. For calibration and QC samples compounds were dispensed using a Mantis(R) Formulatrix. […] Supernatants were transferred to a Greiner V-bottom plate, sealed and subjected for HPLC-MS/MS analysis.
Cell samples as well as plasma stability, plasma protein binding and metabolic stability samples were analysed using an Agilent 1290 Infinity II coupled to an AB Sciex 6500plus mass spec-trometer. LC conditions were as follows: column: Agilent Zorbax Eclipse Plus C18, 50×2.1 mm, 1.8 m; temperature: 30° C.; injection volume: 5 l per sample; flow rate: 700 l/min. Solvents: A: water+0.1% formic acid; solvent B: 95% acetonitrile/5% H2O+0.1% formic acid. Gradient for 2, 36 and 37: 99% A from 0 min until 1 min; 99-0% A from 1.0 until 2.2 min, 0% A until 3.2 min. Gradient for naproxene: 99% A from 0 min until 1 min; 99-0% A from 1.0 until 5.5 min, 0% A until 6.0 min. Gradient for […] and […]: 99% A from 0 min until 1.0 min, 99-0% A from 1.0 until 3.5 min, 0% A until 3.7 min. Mass transitions for controls and compounds are depicted in table 5.

## CC(C)CC(NC(=O)CNC(=O)C(C)NC(=O)c1ccc(S(=O)(=O)NCC2OC(C)C(O)C(O)C2O)cc1)C(=O)NC(C)C(=O)NC1CCN(c2cc3c(cc2F)c(=O)c(C(=O)O)cn3C2CC2)C1 (centres unmarked) [Compound 37]
[1]
  release of antibiotic cargo: release their antibiotic cargo; also recorded: released a significant amount of their antibiotic cargo; also recorded: efficiently released their antibiotic cargo
[2]
  plasma protein binding mouse: 30% and 30.1 ± 9.2%
[3]
  release of antibiotic cargo: no significant release of their antibiotic cargo
A549 cells
  intracellular cleavage to compound 2: not the case
  intracellular drug levels: very low intracellular drug levels

## CC(C)C[C@H](NC(=O)CNC(=O)[C@H](C)NC(=O)c1ccc(S[C@@H]2O[C@H](CO)[C@H](O)[C@H](O)[C@H]2O)cc1)C(=O)N[C@@H](C)C(=O)N[C@H]1CCN(c2cc3c(cc2F)c(=O)c(C(=O)O)cn3C2CC2)C1 [Compound 36]
[1]
  release of antibiotic cargo: release their antibiotic cargo; also recorded: released a significant amount of their antibiotic cargo; also recorded: efficiently released their antibiotic cargo
[2]
  plasma protein binding mouse: 74%
[3]
  release of antibiotic cargo: no significant release of their antibiotic cargo
A549 cells
  intracellular cleavage to compound 2: not the case
  intracellular drug levels: very low intracellular drug levels
A549 cells; 10 μg/ml, after 30 and 60 min
  intracellular concentration: 0.013 to 0.016 µg/mL
